Where two headings read alike, the source gives them in different places.
Tested on: HCV genotype 1b replicon in Huh 7 cells
Assay: HCV replicon assay (1b_Huh-Luc/Neo-ET cell line, luciferase readout)
Type: cell-based
Settings: Hepatitis C virus, read-out: Inhibition of HCV genotype 1b
How it was run: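 Replicon level was read as luciferase signal after 72 h compound exposure, triplicate wells, starting the day after cells were plated. Cell line: 1b_Huh-Luc/Neo-ET. Values normalised to control as percent, and EC50 fitted with a variable-slope sigmoid; determinations repeated.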

[1] = Table 1, genotype 1b replicon, Huh 7 cells, 72 h, luciferase
[2] = Table 2, genotype 1b replicon, Huh 7 cells, 72 h, luciferase

Structure (SMILES) | EC50 [1] [nM] | also measured
COC(=O)N[C@H](C(=O)N1C[C@H](O)C[C@H]1c1ncc(-c2ccc(-c3ccc4cc(-c5cnc([C@@H]6CCCN6C(=O)[C@@H](NC(=O)OC)C6CCOCC6)[nH]5)ccc4n3)cc2)[nH]1)C(C)C [compound 147] | < 1 | –
COC(=O)N[C@H](C(=O)N1CCC[C@H]1c1nc2ccc3cc(-c4ccc5cc(-c6cnc([C@@H]7CCCN7C(=O)[C@@H](NC(=O)OC)C7CCOCC7)[nH]6)ccc5n4)ccc3c2[nH]1)C(C)C [compound 297] | < 1 | –
COC(=O)N[C@H](C(=O)N1CCC[C@H]1c1ncc(-c2ccc3cc(-c4cnc5nc([C@@H]6CCCN6C(=O)[C@@H](NC(=O)OC)[C@@H](C)OC)[nH]c5c4)ccc3c2)[nH]1)[C@@H](C)OC [compound 519] | – | EC50 (Huh-7, HCV 1b replicon): < 1 nM
COC(=O)N[C@H](C(=O)N1CCC[C@H]1c1nc2ccc(-c3ccc4cc(-c5cnc([C@@H]6CCCN6C(=O)[C@H](NC(=O)OC6CCOCC6)c6ccccc6)[nH]5)ccc4n3)cc2[nH]1)C(C)C [compound 509] | – | EC50 (Huh-7, HCV 1b replicon): < 1 nM
COC(=O)N[C@H](C(=O)N1CCC[C@H]1c1ncc(-c2ccc3cc(-c4ccc(-c5cnc([C@@H]6CCCN6C(=O)[C@H](NC(=O)OC6CCOCC6)c6ccccc6)[nH]5)c(F)c4)ncc3c2)[nH]1)C1CCOCC1 [compound 154] | < 1 | –
COC(=O)N[C@H](C(=O)N1CCC[C@H]1c1nc2ccc(-c3ccc4cc(-c5cnc([C@@H]6CCCN6C(=O)[C@H](NC(=O)N6CC[C@H](O)C6)c6ccccc6)[nH]5)ccc4c3)cc2[nH]1)C(C)C [compound 183] | < 1 | –
COC(=O)N[C@H](C(=O)N1CCC[C@H]1c1ncc(-c2ccc(-c3ccc4cc(-c5cnc([C@@H]6CCCN6C(=O)[C@H](NC(=O)OC)c6ccccc6)[nH]5)ccc4n3)cc2F)[nH]1)C(C)C [compound 124] | < 1 | –
COC(=O)N[C@H](C(=O)N1CCC[C@H]1c1nc(-c2ccc3cc(-c4ccc(-c5cnc([C@@H]6CCCN6C(=O)[C@H](NC(=O)OC)c6ccccc6)[nH]5)cc4F)ccc3c2)c[nH]1)C1CCOCC1 [compound 114] | < 1 | –
COC(=O)N[C@H](C(=O)N1CCC[C@H]1c1ncc(-c2ccc(-c3nc4ccc(-c5cnc([C@@H]6CCCN6C(=O)[C@H](NC(=O)OC(C)(C)C)c6ccccc6)[nH]5)cc4o3)cc2)[nH]1)C(C)C [compound 247] | < 1 | –
COC(=O)N[C@H](C(=O)N1CCC[C@H]1c1ncc(-c2ccc(-c3ccc4cc(-c5c[nH]c([C@@H]6CCCN6C(=O)[C@@H](NC(=O)OC)C6CCOCC6)n5)ccc4c3)nc2)[nH]1)C(C)C [compound 52] | < 1 | –
COC(=O)N[C@@H](C(=O)N1CCC[C@H]1c1ncc(-c2ccc(-c3ccc4cc(-c5cnc([C@@H]6CCCN6C(=O)[C@H](NC(=O)OC6CCOCC6)c6ccccc6)[nH]5)ccc4n3)cc2F)[nH]1)c1ccccc1 [compound 474] | – | EC50 (Huh-7, HCV 1b replicon): < 1 nM
COC(=O)N[C@H](C(=O)N1CCC[C@H]1c1nc(-c2ccc3cc(-c4ccc(-c5cnc([C@@H]6CCCN6C(=O)[C@H](NC(=O)OC)c6ccccc6)[nH]5)cc4)ccc3c2)c[nH]1)C1CCOCC1 [compound 99] | < 1 | –
COC(=O)N[C@H](C(=O)N1CCC[C@H]1c1ncc(-c2ccc3cc(-c4ccc(-c5cnc([C@@H]6CCCN6C(=O)[C@H](NC(=O)NC6CC6)c6ccccc6)[nH]5)cc4)ncc3c2)[nH]1)C1CCOCC1 [compound 145] | < 1 | –
COC(=O)N[C@H](C(=O)N1CCC[C@H]1c1ncc(-c2ccc(-c3ccc4cc(-c5c[nH]c([C@@H]6CCCN6C(=O)[C@H](NC(=O)OC(C)(C)C)c6ccccc6)n5)cnc4c3)nc2)[nH]1)C(C)C [compound 82] | < 1 | –
CN(C)[C@@H](C(=O)N1CCC[C@H]1c1nc(-c2ccc3nc(C45CCC(c6cnc([C@@H]7CCCN7C(=O)[C@@H](c7ccccc7)N(C)C)[nH]6)(CC4)CC5)ccc3c2)c[nH]1)c1ccccc1 [compound 264] | 1 to 9.9 | –
CCC(CC)[C@H](NC(=O)OC)C(=O)N1CCC[C@H]1c1ncc(-c2ccc(-c3ccc4cc(-c5cnc([C@@H]6CCCN6C(=O)[C@@H](NC(=O)OC)C(CC)CC)[nH]5)ccc4c3)cc2)[nH]1 [compound 171] | < 1 | –
COC(=O)N[C@H](C(=O)N1CCC[C@H]1c1ncc(-c2ccc(-c3ccc4cc(-c5cnc([C@@H]6CCCN6C(=O)[C@H](NC(=O)OC)c6ccccc6)[nH]5)ccc4n3)c(F)c2)[nH]1)C1CCOCC1 [compound 129] | < 1 | –
CCNC(=O)N[C@@H](C(=O)N1CCC[C@H]1c1ncc(-c2ccc(-c3nc4ccc(-c5cnc([C@@H]6CCCN6C(=O)[C@@H](NC(=O)OC)C(C)C)[nH]5)cc4o3)cc2)[nH]1)c1ccccc1 [compound 257] | < 1 | –
COC(=O)N[C@H](C(=O)N1CCC[C@H]1c1ncc(-c2ccc(-c3ccc4cc(-c5cnc([C@@H]6C[C@@H](O)CN6C(=O)[C@@H](NC(=O)OC)C(C)C)[nH]5)ccc4c3)cc2)[nH]1)C(C)C [compound 305] | – | EC50 [2]: < 1 nM
COC(=O)N[C@H](C(=O)N1CCC[C@H]1c1ncc(-c2ccc3cc(-c4ccc5nc([C@@H]6CCCN6C(=O)[C@@H](NC(=O)OC)C6CCCCC6)[nH]c5c4)ncc3c2)[nH]1)C1CCCCC1 [compound 379] | – | EC50 [2]: < 1 nM

Structure (SMILES) | EC50 [1] [nM] | also measured
COC(=O)N[C@H](C(=O)N1CCC[C@H]1c1ncc(-c2ccc(-c3ccc4cc(-c5c[nH]c([C@@H]6CCCN6C(=O)[C@@H](c6ccccc6)N(C)C)n5)ccc4c3)cc2)[nH]1)C(C)C [compound 6] | < 1 | –
COC(=O)N[C@H](C(=O)N1CCC[C@H]1c1nc(-c2ccc3nc(-c4ccc(-c5cnc([C@@H]6CCCN6C(=O)[C@@H](NC(=O)OC)C6CCOCC6)[nH]5)c(F)c4)ccc3c2)c[nH]1)C1CCOCC1 [compound 108] | < 1 | –
COC(=O)N[C@H](C(=O)N1CCC[C@H]1c1ncc(-c2cnc3cc(-c4ccc5nc([C@@H]6CCCN6C(=O)[C@@H](NC(=O)OC)C6CCOCC6)[nH]c5c4)ccc3c2)[nH]1)C(C)C [compound 192] | < 1 | –
COC(=O)N[C@H](C(=O)N1CCC[C@H]1c1ncc(-c2ccc3cc(-c4ccc5nc([C@@H]6CCCN6C(=O)[C@@H](NC(=O)OC)[C@@H](C)OC)[nH]c5c4)ccc3c2)[nH]1)C(C)C [compound 525] | – | EC50 (Huh-7, HCV 1b replicon): < 1 nM
COC(=O)N[C@@H](C(=O)N1CCCC[C@H]1c1ncc(-c2ccc(-c3ccc4cc(-c5cnc([C@@H]6CCCN6C(=O)[C@H](NC(=O)OC)c6ccccc6)[nH]5)ccc4n3)cc2)[nH]1)c1ccccc1 [compound 457] | – | EC50 (Huh-7, HCV 1b replicon): < 1 nM
COC(=O)N[C@H](C(=O)N1CCC[C@H]1c1nc2ccc(-c3ccc4cc(-c5cnc([C@@H]6CCCN6C(=O)[C@H](NC(=O)OC)c6ccccc6)[nH]5)ccc4c3)nc2[nH]1)C(C)C [compound 200] | < 1 | –
CC[C@H](C)[C@H](NC(=O)OC)C(=O)N1CCC[C@H]1c1nc2ccc(-c3ccc4cc(-c5cnc([C@@H]6CCCN6C(=O)[C@@H](NC(=O)OC)[C@@H](C)O)[nH]5)ccc4c3)cc2[nH]1 [compound 524] | – | EC50 (Huh-7, HCV 1b replicon): < 1 nM
COC[C@H](NC(=O)OC)C(=O)N1CCC[C@H]1c1ncc(-c2ccc3cc(-c4ccc(-c5cnc([C@@H]6CCCN6C(=O)[C@H](NC(=O)OC)c6ccccc6)[nH]5)nn4)ccc3c2)[nH]1 [compound 477] | – | EC50 (Huh-7, HCV 1b replicon): < 1 nM
COC(=O)N[C@H](C(=O)N[C@@H](C)c1ncc(-c2ccc3cc(-c4ccc(-c5cnc([C@@H]6CCCN6C(=O)[C@@H](NC(=O)OC)C(C)C)[nH]5)cc4)ccc3c2)[nH]1)C(C)C [compound 304] | – | EC50 [2]: < 1 nM
COC(=O)N[C@H](C(=O)N1CCCC[C@H]1c1ncc(-c2ccc(-c3ccc4cc(-c5cnc([C@@H]6CCCN6C(=O)[C@@H](NC(=O)OC)C6CCOCC6)[nH]5)ccc4n3)cc2)[nH]1)C1CCOCC1 [compound 456] | – | EC50 (Huh-7, HCV 1b replicon): < 1 nM
COC(=O)N[C@H](C(=O)N1CCC[C@H]1c1nc(-c2ccc3cc(-c4ccc(-c5cnc([C@@H]6CCCN6C(=O)[C@H](NC(=O)OC)c6ccccc6)[nH]5)nc4)ccc3c2)c[nH]1)C(C)C [compound 63] | < 1 | –
COC(=O)N[C@H](C(=O)N1CCC[C@H]1CNC(=O)c1cnc2cc(-c3ccc(-c4cnc([C@@H]5CCCN5C(=O)[C@@H](NC(=O)OC)C(C)C)[nH]4)cc3)ccc2c1)C(C)C [compound 552] | – | EC50 (Huh-7, HCV 1b replicon): 1 to 9.9 nM
COC(=O)N[C@H](C(=O)N1CCC[C@H]1c1ncc(-c2ccc(-c3nc4ccc(-c5cnc([C@@H]6CCCN6C(=O)[C@H](NC(=O)OC(C)(C)C)c6ccccc6)[nH]5)cc4s3)cc2)[nH]1)C(C)C [compound 242] | < 1 | –
COC(=O)N[C@H](C(=O)N1CCC[C@H]1c1ncc(-c2ccc(-c3cc4ccc(-c5cnc([C@@H]6CCCN6C(=O)[C@H](NC(=O)OC)c6ccccc6)[nH]5)cc4cn3)cc2)[nH]1)[C@@H](C)O [compound 484] | – | EC50 (Huh-7, HCV 1b replicon): < 1 nM
COC(=O)N[C@H](C(=O)N1CCC[C@H]1c1ncc(-c2ccc(-c3ccc4cc(-c5c[nH]c([C@@H]6CCCN6C(=O)[C@@H](NC(=O)OC)C6CCOCC6)n5)ccc4c3)c(C)c2)[nH]1)C(C)C [compound 104] | < 1 | –
CC[C@H](C)[C@H](NC(=O)OC)C(=O)N1CCC[C@H]1c1ncc(-c2ccc(-c3ccc4cc(-c5cnc([C@@H]6CCCN6C(=O)[C@@H](NC(=O)OC)[C@@H](C)OC)[nH]5)ccc4c3)cc2)[nH]1 [compound 503] | – | EC50 (Huh-7, HCV 1b replicon): < 1 nM
COC(=O)N[C@H](C(=O)N1CCC[C@H]1c1ncc(-c2ccc(-c3ccc4cc(-c5cnc([C@@H]6CCCN6C(=O)[C@@H](NC(=O)OC)C6CCOCC6)[nH]5)ccc4c3)c(F)c2)[nH]1)C1CCOCC1 [compound 141] | < 1 | –
COC(=O)N[C@H](C(=O)N1CCC[C@H]1c1ncc(-c2ccc3cc(-c4ccc5nc([C@@H]6CCCN6C(=O)[C@H](NC(=O)N6CC[C@H](O)C6)c6ccccc6)[nH]c5c4)ccc3c2)[nH]1)C(C)C [compound 185] | < 1 | –
COC(=O)N[C@H](C(=O)N1CCC[C@H]1c1ncc(-c2ccc3cc(-c4cnc5nc([C@@H]6CCCN6C(=O)[C@@H](NC(=O)OC)C6CCCC6)[nH]c5c4)ccc3c2)[nH]1)C1CCCC1 [compound 403] | – | EC50 [2]: < 1 nM
COC[C@H](NC(=O)OC)C(=O)N1CCC[C@H]1c1ncc(-c2ccc3cc(-c4ccc5nc([C@@H]6COCCN6C(=O)[C@H](COC)NC(=O)OC)[nH]c5c4)ccc3c2)[nH]1 [358-1] | – | EC50 [2]: < 1 nM
